Bridge positions count the residues as written; N and C are the ends. Square brackets hold non-standard residues; d marks the D form. Peptide text beside a SMILES is read from it. * marks the point of attachment. ξ: configuration not given here. Phe(3-CF3) = N[C@@H](Cc1cccc(C(F)(F)F)c1)C(=O)O; Phe(4-COOH) = N[C@@H](Cc1ccc(C(=O)O)cc1)C(=O)O; Bip = N[C@@H](Cc1ccc(-c2ccccc2)cc1)C(=O)O; Abu(4,4,4-F3) = N[C@@H](CC(F)(F)F)C(=O)O; NH(CH2)14COOH = O=C(O)CCCCCCCCCCCCCCN*; Phe(3-Me) = Cc1cccc(C[C@H](N)C(=O)O)c1; NH(CH2)12COOH = O=C(O)CCCCCCCCCCCCN*; Val(3-OH) = CC(C)(O)[C@H](N)C(=O)O; Cha = N[C@@H](CC1CCCCC1)C(=O)O; Thr(3ξ) = CC(O)[C@H](N)C(=O)O; Carboxymethyl = O=C(O)C*; Orn = NCCC[C@H](N)C(=O)O; Dab = NCC[C@H](N)C(=O)O; AEEA = NCCOCCOCC(=O)O
Molecular target: T1, PD-1/PD-L1 interaction (PE-labeled human PD-L1-Ig binding to Jurkat cell line over-expressing human PD-1) (Homo sapiens, UniProt Q15116)
T1 construct: expressed in transfected cells; host or cells: Jurkat
T1 sequence (Q15116 25-288): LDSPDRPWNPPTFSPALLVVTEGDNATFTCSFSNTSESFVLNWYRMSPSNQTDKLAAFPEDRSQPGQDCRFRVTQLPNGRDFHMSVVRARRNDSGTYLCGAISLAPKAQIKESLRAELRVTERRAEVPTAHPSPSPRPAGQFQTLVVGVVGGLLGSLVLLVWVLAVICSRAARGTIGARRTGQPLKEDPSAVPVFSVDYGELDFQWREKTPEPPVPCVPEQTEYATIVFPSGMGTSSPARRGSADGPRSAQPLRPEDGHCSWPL
Assay: Jurkat-PD-1 Cell Binding High-Content Screening Assay (CBA)
Type: cell-based
Details: Jurkat cell line over-expressing human PD-1; PE-labeled PD-L1-Ig 20 nM final; read-out: Jurkat hPD1-PDL1 IC50
Summary of the method: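 Binding of fluorescent PD-L1-Ig (phycoerythrin on Ig tag, 20 nM final, 1 h) measured by high-content imaging of fixed, Hoechst-counterstained Jurkat-hPD-1 cells. Compound added 2 h at 37° C beforehand, in DMEM with 10% fetal calf serum.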

| IC50 [nM] | Structure (SMILES) |
| --- | --- |
| 15.2 | Cc1cccc(C[C@@H]2NC(=O)[C@H](CC(=O)O)NC(=O)[C@H](Cc3ccc(OCC(=O)O)cc3)NC(=O)[C@H](C(C)O)NC(=O)CSC[C@@H](C(=O)N[C@@H](CCN)C(=O)NCCCCCCCCCCCCC(=O)O)NC(=O)[C@H](CO)NC(=O)[C@H](C(C)(C)O)NC(=O)[C@H](CC3CCCCC3)NC(=O)[C@H](CCN)NC(=O)[C@@H](CC(C)C)NC(=O)[C@H](CCCN)NC(=O)[C@H](Cc3ccc(OCC(=O)O)cc3)NC(=O)[C@H](Cc3ccc(-c4ccccc4)cc3)NC(=O)[C@H](Cc3ccc(OCC(=O)O)cc3)NC2=O)c1 (stereo partly drawn) [Compound 3844] ({CH2CO}-[Thr(3ξ)]Y(Carboxymethyl)D[Phe(3-Me)]Y(Carboxymethyl)[Bip]Y(Carboxymethyl)[Orn][dL][Dab][Cha][Val(3-OH)]SC[Dab]-{NH(CH2)12COOH}; thioether N-14) |
| 317 | CC(C)C[C@H]1NC(=O)[C@H](CCCN)NC(=O)[C@H](Cc2ccc(C(=O)O)cc2)NC(=O)[C@H](Cc2ccc(-c3ccccc3)cc2)NC(=O)[C@H](Cc2ccc(C(=O)O)cc2)NC(=O)[C@H](Cc2cccc(C(F)(F)F)c2)NC(=O)[C@H](CC(=O)O)NC(=O)[C@H](Cc2ccc(OCC(=O)O)cc2)NC(=O)[C@H](Cc2ccc(OCC(=O)O)cc2)NC(=O)CSC[C@@H](C(=O)N[C@@H](CCN)C(=O)NCCCCCCCCCCCCCCC(=O)O)NC(=O)[C@H](CC(=O)O)NC(=O)[C@H](C(C)C)NC(=O)[C@H](CC2CCCCC2)NC(=O)[C@H](CCN)NC1=O [Compound 3848] ({CH2CO}-Y(Carboxymethyl)Y(Carboxymethyl)D[Phe(3-CF3)][Phe(4-COOH)][Bip][Phe(4-COOH)][Orn][dL][Dab][Cha]VDC[Dab]-{NH(CH2)14COOH}; thioether N-14) |
| 250 | CC(C)C[C@H]1NC(=O)[C@H](CCCN)NC(=O)[C@H](Cc2ccc(C(=O)O)cc2)NC(=O)[C@H](Cc2ccc(-c3ccccc3)cc2)NC(=O)[C@H](Cc2ccc(C(=O)O)cc2)NC(=O)[C@H](Cc2cccc(C(F)(F)F)c2)NC(=O)[C@H](CC(=O)O)NC(=O)[C@H](Cc2ccc(OCC(=O)O)cc2)NC(=O)[C@H](Cc2ccc(OCC(=O)O)cc2)NC(=O)CSC[C@@H](C(=O)N[C@@H](CCN)C(=O)NCCCCCCCCCCCCCCC(=O)O)NC(=O)[C@H](CCC(=O)O)NC(=O)[C@H](C(C)C)NC(=O)[C@H](CC2CCCCC2)NC(=O)[C@H](CCN)NC1=O [Compound 3849] ({CH2CO}-Y(Carboxymethyl)Y(Carboxymethyl)D[Phe(3-CF3)][Phe(4-COOH)][Bip][Phe(4-COOH)][Orn][dL][Dab][Cha]VEC[Dab]-{NH(CH2)14COOH}; thioether N-14) |
| 282 | CC(=O)NCCCC[C@@H]1NC(=O)[C@H](C(C)(C)O)NC(=O)[C@H](CC2CCCCC2)NC(=O)[C@H](CCN)NC(=O)[C@@H](CC(C)C)NC(=O)[C@H](CCCN)NC(=O)[C@H](Cc2ccc(OCC(=O)O)cc2)NC(=O)[C@H](Cc2ccc(-c3ccccc3)cc2)NC(=O)[C@H](Cc2ccc(OCC(=O)O)cc2)NC(=O)[C@H](Cc2cccc(C(F)(F)F)c2)NC(=O)[C@H](CC(=O)O)NC(=O)[C@H](Cc2ccc(OCC(=O)O)cc2)NC(=O)[C@H](Cc2ccc(OCC(=O)O)cc2)NC(=O)CSC[C@@H](C(=O)N[C@@H](CCN)C(=O)NCCOCCOCC(=O)NCCCCCCCCCCCCCCC(=O)O)NC1=O [Compound 3850] ({CH2CO}-Y(Carboxymethyl)Y(Carboxymethyl)D[Phe(3-CF3)]Y(Carboxymethyl)[Bip]Y(Carboxymethyl)[Orn][dL][Dab][Cha][Val(3-OH)]K(Ac)C[Dab][AEEA]-{NH(CH2)14COOH}; thioether N-14) |
| 125 | Cc1cccc(C[C@@H]2NC(=O)[C@H](CC(=O)O)NC(=O)[C@H](Cc3ccc(OCC(=O)O)cc3)NC(=O)[C@H](C)NC(=O)CSC[C@@H](C(=O)N[C@@H](CCN)C(=O)NCCOCCOCC(=O)NCCCCCCCCCCCCCCC(=O)O)NC(=O)[C@H](Cc3cnc[nH]3)NC(=O)[C@H](C(C)(C)O)NC(=O)[C@H](CC3CCCCC3)NC(=O)[C@H](CCN)NC(=O)[C@@H](CC(C)C)NC(=O)[C@H](CCCN)NC(=O)[C@H](Cc3ccc(OCC(=O)O)cc3)NC(=O)[C@H](Cc3ccc(-c4ccccc4)cc3)NC(=O)[C@H](Cc3ccc(OCC(=O)O)cc3)NC2=O)c1 [Compound 3851] ({CH2CO}-AY(Carboxymethyl)D[Phe(3-Me)]Y(Carboxymethyl)[Bip]Y(Carboxymethyl)[Orn][dL][Dab][Cha][Val(3-OH)]HC[Dab][AEEA]-{NH(CH2)14COOH}; thioether N-14) |
| 142 | CC(C)C[C@H]1NC(=O)[C@H](CCCN)NC(=O)[C@H](Cc2ccc(OCC(=O)O)cc2)NC(=O)[C@H](Cc2ccc(-c3ccccc3)cc2)NC(=O)[C@H](Cc2ccc(OCC(=O)O)cc2)NC(=O)[C@H](Cc2cccc(C(F)(F)F)c2)NC(=O)[C@H](CC(=O)O)NC(=O)[C@H](Cc2ccc(OCC(=O)O)cc2)NC(=O)[C@H](C)NC(=O)CSC[C@@H](C(=O)N[C@@H](CCN)C(=O)NCCCCCCCCCCCCCCC(=O)O)NC(=O)[C@H](Cc2cnc[nH]2)NC(=O)[C@H](C(C)(C)O)NC(=O)[C@H](CC2CCCCC2)NC(=O)[C@H](CCN)NC1=O [Compound 3852] ({CH2CO}-AY(Carboxymethyl)D[Phe(3-CF3)]Y(Carboxymethyl)[Bip]Y(Carboxymethyl)[Orn][dL][Dab][Cha][Val(3-OH)]HC[Dab]-{NH(CH2)14COOH}; thioether N-14) |
| 104 | Cc1cccc(C[C@@H]2NC(=O)[C@H](CC(=O)O)NC(=O)[C@H](Cc3ccc(OCC(=O)O)cc3)NC(=O)[C@H](C)NC(=O)CSC[C@@H](C(=O)N[C@@H](CCN)C(=O)NCCOCCOCC(=O)NCCOCCOCC(=O)NCCCCCCCCCCCCCCC(=O)O)NC(=O)[C@H](CO)NC(=O)[C@H](C(C)(C)O)NC(=O)[C@H](CC3CCCCC3)NC(=O)[C@H](CCN)NC(=O)[C@@H](CC(C)C)NC(=O)[C@H](CCCN)NC(=O)[C@H](Cc3ccc(C(=O)O)cc3)NC(=O)[C@H](Cc3ccc(-c4ccccc4)cc3)NC(=O)[C@H](Cc3ccc(C(=O)O)cc3)NC2=O)c1 [Compound 3853] ({CH2CO}-AY(Carboxymethyl)D[Phe(3-Me)][Phe(4-COOH)][Bip][Phe(4-COOH)][Orn][dL][Dab][Cha][Val(3-OH)]SC[Dab][AEEA][AEEA]-{NH(CH2)14COOH}; thioether N-14) |
| 45.2 | Cc1cccc(C[C@@H]2NC(=O)[C@H](CC(=O)O)NC(=O)[C@H](Cc3ccc(OCC(=O)O)cc3)NC(=O)[C@H](C)NC(=O)CSC[C@@H](C(=O)N[C@@H](CCN)C(=O)NCCOCCOCC(=O)NCCOCCOCC(=O)NCCOCCOCC(=O)NCCCCCCCCCCCCCCC(=O)O)NC(=O)[C@H](CO)NC(=O)[C@H](C(C)(C)O)NC(=O)[C@H](CC3CCCCC3)NC(=O)[C@H](CCN)NC(=O)[C@@H](CC(C)C)NC(=O)[C@H](CCCN)NC(=O)[C@H](Cc3ccc(C(=O)O)cc3)NC(=O)[C@H](Cc3ccc(-c4ccccc4)cc3)NC(=O)[C@H](Cc3ccc(C(=O)O)cc3)NC2=O)c1 [Compound 3854] ({CH2CO}-AY(Carboxymethyl)D[Phe(3-Me)][Phe(4-COOH)][Bip][Phe(4-COOH)][Orn][dL][Dab][Cha][Val(3-OH)]SC[Dab][AEEA][AEEA][AEEA]-{NH(CH2)14COOH}; thioether N-14) |
| 119 | Cc1cccc(C[C@@H]2NC(=O)[C@H](CC(=O)O)NC(=O)[C@H](Cc3ccc(OCC(=O)O)cc3)NC(=O)[C@H](C)NC(=O)CSC[C@@H](C(=O)N[C@@H](CCN)C(=O)NCCOCCOCC(=O)NCCOCCOCC(=O)NCCCCCCCCCCCCCCC(=O)O)NC(=O)[C@H](Cc3cnc[nH]3)NC(=O)[C@H](C(C)(C)O)NC(=O)[C@H](CC3CCCCC3)NC(=O)[C@H](CCN)NC(=O)[C@@H](CC(C)C)NC(=O)[C@H](CCCN)NC(=O)[C@H](Cc3ccc(C(=O)O)cc3)NC(=O)[C@H](Cc3ccc(-c4ccccc4)cc3)NC(=O)[C@H](Cc3ccc(C(=O)O)cc3)NC2=O)c1 [Compound 3855] ({CH2CO}-AY(Carboxymethyl)D[Phe(3-Me)][Phe(4-COOH)][Bip][Phe(4-COOH)][Orn][dL][Dab][Cha][Val(3-OH)]HC[Dab][AEEA][AEEA]-{NH(CH2)14COOH}; thioether N-14) |
| 94.2 | Cc1cccc(C[C@@H]2NC(=O)[C@H](CC(=O)O)NC(=O)[C@H](Cc3ccc(OCC(=O)O)cc3)NC(=O)[C@H](C)NC(=O)CSC[C@@H](C(=O)N[C@@H](CCN)C(=O)NCCOCCOCC(=O)NCCOCCOCC(=O)NCCOCCOCC(=O)NCCCCCCCCCCCCCCC(=O)O)NC(=O)[C@H](Cc3cnc[nH]3)NC(=O)[C@H](C(C)(C)O)NC(=O)[C@H](CC3CCCCC3)NC(=O)[C@H](CCN)NC(=O)[C@@H](CC(C)C)NC(=O)[C@H](CCCN)NC(=O)[C@H](Cc3ccc(C(=O)O)cc3)NC(=O)[C@H](Cc3ccc(-c4ccccc4)cc3)NC(=O)[C@H](Cc3ccc(C(=O)O)cc3)NC2=O)c1 [Compound 3856] ({CH2CO}-AY(Carboxymethyl)D[Phe(3-Me)][Phe(4-COOH)][Bip][Phe(4-COOH)][Orn][dL][Dab][Cha][Val(3-OH)]HC[Dab][AEEA][AEEA][AEEA]-{NH(CH2)14COOH}; thioether N-14) |
| 166 | CC(C)C[C@H]1NC(=O)[C@H](Cc2cnc[nH]2)NC(=O)[C@H](Cc2ccc(C(=O)O)cc2)NC(=O)[C@H](Cc2ccc(-c3ccccc3)cc2)NC(=O)[C@H](Cc2ccc(C(=O)O)cc2)NC(=O)[C@H](Cc2cccc(C(F)(F)F)c2)NC(=O)[C@H](CC(=O)O)NC(=O)[C@H](Cc2ccc(OCC(=O)O)cc2)NC(=O)[C@H](CC(F)(F)F)NC(=O)CSC[C@@H](C(=O)N[C@@H](CCN)C(=O)NCCCCCCCCCCCCC(=O)O)NC(=O)[C@H](CO)NC(=O)[C@H](C(C)(C)O)NC(=O)[C@H](CC2CCCCC2)NC(=O)[C@H](CCN)NC1=O [Compound 3857] ({CH2CO}-[Abu(4,4,4-F3)]Y(Carboxymethyl)D[Phe(3-CF3)][Phe(4-COOH)][Bip][Phe(4-COOH)]H[dL][Dab][Cha][Val(3-OH)]SC[Dab]-{NH(CH2)12COOH}; thioether N-14) |

From patent US20260022142A1, “MACROCYCLIC IMMUNOMODULATORS” (Bristol-Myers Squibb Company, priority 2022, published 2026)
